The results in this text go back to article PMC11809180, “RA-PR058, a novel ramalin derivative, reduces BACE1 expression and phosphorylation of tau in Alzheimer’s disease mouse models” (Animal Cells and Systems, 2025).

A short description of one data set: Microsomal stability. Particulars: human, mouse, rat, dog, monkey, liver microsomes, 30 minutes 37 ℃, with and without NADPH, across all microsomes tested. Type of data set: in vitro ADME. The protocol: The metabolic stability of RA-PR058 was evaluated using liver microsomes from humans and various animal species at 37 ℃. This assay was carried out by SPMED Co., Ltd (Republic of Korea). The test was initiated by adding the 1 μM of RA-PR058 to liver microsomes in the presence or absence of an NADPH regenerating system. After incubation at 37 ℃ for 30 minutes, acetonitrile containing an internal standard was added to each sample to terminate the reaction. Samples were then centrifuged, and the supernatant was analyzed by LC-MS.

In the next data set the test system is BACE1. The data set is described as follows: BACE1 expression in brain of 3xTg-AD mice (western blot). The settings on record: 20 mg/kg oral daily 4 weeks. Type of data set: in vivo, mouse. The procedure: (§1) 3xTg-AD (B6;129-Tg(APPSwe,tauP301L)1Lfa Psen1^tm1Mpm/Mmjax) mice and their littermate wild-type (WT) mice were used in this study. Each experimental group consisted of 4–8 mice, with groups designated as WT, 3xTg-AD Vehicle, and 3xTg-AD RA-PR058. All mice were maintained in a 12-hour light/dark cycle with free access to food and water. 7-month-old age of mice were administered with 20 mg/kg of RA-PR058 orally once a day for 1 month followed by the elevated plus maze test. All animal experimental procedures were approved by the Institutional Animal Care and Use Committee of Sungkyunkwan University (SKKUIACUC2022-10-41-1).
(§2) After EPM was conducted, mice were sacrificed, and brain tissues were collected as previously described (Park et al. [2021]). Mice were anesthetized by injecting Zoletil (Virbac) and Rompun (Bayer) intraperitoneally. After mice were anesthetized, they were perfused with phosphate-buffered saline (PBS). Then, brains were extracted and cut into two hemispheres; one hemisphere was preserved in 4% paraformaldehyde and the other was dissected into the cortex and hippocampus. […]
(§3) Samples for western blot analysis were prepared as previously described (Gwon et al. [2012]). […] Protein concentrations were measured using Pierce™ BCA Protein Assay Kits (Thermo Fisher Scientific). […] Protein bands were quantified using ImageJ (NIH).

In a further data set the test system is JNK. The data set is described as follows: JNK phosphorylation in cortex of 3xTg-AD mice (western blot). Type of data set: in vivo, mouse. The settings on record: 20 mg/kg oral daily 4 weeks, p-JNK normalized with JNK. The procedure:
as §1, §2, §3

`Cl.N[C@@H](CCC(=O)NNc1ccccc1F)C(F)F` [RA-PR058, (S)-4-amino-5,5-difluoro-N'-(2-fluorophenyl)pentanehydrazide hydrochloride] displayed a share remaining at 0.5 h, 1 μM in “Microsomal stability” above 90%. In the data set with BACE1 (cortex, normalized with β-Actin), the “Cortical BACE1 expression” value is “significantly reduced”. Besides, in the data set with BACE1 (hippocampus), the “BACE1 expression in the hippocampus” value is reported as “did not affect”. For the same molecule, the JNK phosphorylation result with JNK was “significantly downregulated”.
